{"source": "patent US20240366640A1", "about": "“LYOPHILIZED FORMULATION SOLUTION AND LYOPHILIZED FORMULATION, AND METHOD AND USE THEREOF” (ASCENTAWITS PHARMACEUTICALS, LTD., priority 2021, published 2024)", "key": {"[1]": {"assay": "Solubility of TH-302 by the saturated solution method (HPLC, external standard)", "format": "physicochemical", "protocol": "The solubility is measured in an experiment by the saturated solution method; that is, the solid TH-302 was directly charged into the solvent until insoluble matter or turbidity appears. After clarification for a period of time, the solution was directly filtered. The clarified filtrate was taken directly for determination of the concentration of TH-302. The resulting concentration is exactly the solubility of TH-302 in this solvent system. Please refer to Tables 1, 2, and 3 for specific solubility data.\nFor the method for measuring the concentration of TH-302 (mg/ml), please refer to the HPLC method described in the patent WO2008083101A1 owned by Threshold Pharmaceuticals Inc. (see Example 2. An Ethanol Formulation of TH302, for details); and the external standard method was used for quantification."}, "[2]": {"assay": "Saturated solubility of the drug in D5W solution (strong shaking)", "format": "physicochemical", "conditions": "left to stand at room temperature for 24 hours", "protocol": "The TH-302 sample was weighed accurately in an amount of about 60 mg, placed in a transparent vial, and added with 6 ml of dextrose 5% in water (D5W). The resulting solution was shaked vigorously for 2 minutes to obtain a solubility-stock solution. It was observed that the solubility-stock solution contained insoluble substances. Thus, the solubility-preserving solution was filtered and then became clear. […] This value was exactly the saturated solubility of the drug in D5W solution."}, "[3]": {"conditions": "concentrate with 70% ethanol, 25% dimethlyacetamide, 5% polysorbate 80; mainly induced by dimethlyacetamide; WO2015013448A1; cited from earlier work"}}}
{"smiles": "Cn1c(COP(=O)(NCCBr)NCCBr)cnc1[N+](=O)[O-]", "note": "[TH-302]", "values": [{"measurement": "Solubility", "setting": "[1]; 1% Tween 80 aqueous solution (volume ratio)", "result": 7.21, "unit": "mg/mL"}, {"measurement": "Solubility", "setting": "[1]; 95% tert-butanol/5% ethanol (volume ratio), TH-302 purchased commercially", "result": 9.98, "unit": "mg/mL"}, {"measurement": "Appearance of the filtered filtrate", "setting": "[2]", "result": "still clear"}, {"measurement": "TH-302 administration reactions", "setting": "[3]", "result": "lip swelling and urticaria"}]}
